Each molecule was assayed against T1, rat EP1 receptor (Rattus norvegicus, UniProt P70597) (assay: Test for confirmation of EP1 receptor antagonism (inhibition of PGE2-induced increase in intracellular calcium concentration)). Settings: rat EP1 receptor-expressing COS-1 cells; prostaglandin E2 10 nM; fluorescent calcium indicator, FDSS 7000.
T1 construct: expressed in transfected cells
T1 sequence (P70597 1-405): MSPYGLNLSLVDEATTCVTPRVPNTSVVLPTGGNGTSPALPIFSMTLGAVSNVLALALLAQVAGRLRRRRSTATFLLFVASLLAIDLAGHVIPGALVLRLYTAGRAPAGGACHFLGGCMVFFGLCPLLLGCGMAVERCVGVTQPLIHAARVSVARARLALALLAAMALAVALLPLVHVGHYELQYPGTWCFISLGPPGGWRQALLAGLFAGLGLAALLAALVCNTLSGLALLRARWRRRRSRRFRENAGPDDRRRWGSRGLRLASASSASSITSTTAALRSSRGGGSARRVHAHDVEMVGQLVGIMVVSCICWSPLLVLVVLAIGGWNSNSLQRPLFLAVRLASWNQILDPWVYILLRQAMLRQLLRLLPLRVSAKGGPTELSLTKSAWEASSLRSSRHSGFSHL
Format: cell-based
Method: Test for Confirmation of EP1 Receptor Antagonism
(1) Preparation of Rat EP1 Expression Vector
Using Rat Kidney BD Marathon-Ready cDNA (Nippon Becton Dickinson Company, Ltd.) as a template, a forward primer shown in (SEQ ID NO:1), and a reverse primer shown in (SEQ ID NO:2), a first run of PCR was carried out using KOD-Plus-Ver 2.0 (Toyobo Co., Ltd.). Further, using this amplification product as a template, a forward primer shown in (SEQ ID NO:3), and a reverse primer shown in (SEQ ID NO:4), a second run of PCR was carried out in the same manner. The amplification product obtained by the second run of PCR was incorporated into a vector (pcDNA3.1 D/V5-His-TOPO (registered trademark), Invitrogen Japan K. K.). By a conventional method, the vector containing this amplification product was introduced to E. coli (One Shot TOP 10 Competent Cells, Invitrogen Corporation) to transform. This transformed E. coli was cultured in an LB agar medium for one day. After the culture, colonies were selected and cultured in an LB liquid medium containing 50 μg/mL of ampicillin. After the culture, the vector was purified using a QIAprep Spin Miniprep Kit (Qiagen K. K.). The base sequence of the insertion site of this vector (SEQ ID NO:5) was compared with the rat EP1 base sequence (Ptger1) registered as Accession No. NM_013100 in publicly-known database (NCBI), and as a result, they all matched except for a single base. Further, the amino acid sequence translated by the base sequence completely matched the amino acid sequence of the rat EP1 receptor registered as an NCBI Accession No. NP_037232. Therefore, it was confirmed that the cloned gene sequence was a base sequence of the rat EP1 receptor and the obtained amino acid sequence was that of the rat EP1 receptor. The pcDNA3.1 D/V5-His-TOPO (registered trademark) to which the nucleic acid shown in (SEQ ID NO:5) had been inserted was taken as a rat EP1-expressing vector.
(2) Preparation of Rat EP1 Receptor-Expressing Cells
COS-1 cells (Dainippon Sumitomo Pharma Co., Ltd.) were cultured until they reached confluence in an incubator at 37° C. under a 5% CO2 gas condition, using a D-MEM liquid medium (high glucose and L-glutamine contained, Invitrogen Corporation) to which a penicillin-streptomycin solution (Invitrogen Corporation, final concentration: 100 U/mL as benzylpenicillin; 100 μg/mL as streptomycin) as an antibiotic, MEM nonessential amino acids (Invitrogen Corporation, final concentration: 0.1 mM), and fetal calf serum (Sanko Junyaku Co., Ltd., final concentration: 10%) were added.
The cells that had reached confluence were stripped with 0.05% trypsin/0.53 mM EDTA.4Na, and resuspended in a D-MEM liquid medium (high glucose and L-glutamine contained, Invitrogen Corporation) to which an MEM nonessential amino acid (final concentration: 0.1 mM) and fetal calf serum (final concentration: 10%) were added. In each well of a Poly D-lysine-coated 96-well microplate (BD BioCoat (registered trademark), Nippon Becton Dickinson Company, Ltd.), this resuspended cell suspension culture was prepared to be 5×10^4 cells/well in 100 μL of the liquid medium, and 100 μL of the cell suspension was seeded on each well. After seeding, the cells were cultured in an incubator at 37° C. under a 5% CO2 gas condition. At a point when the cells for introduction of a rat EP1-expressing vector were adhered (about 2 hours after seeding), introduction of the rat EP1-expressing vector was carried out in the following order.
For introduction of the rat EP1-expressing vector, Lipofectamine 2000 (Invitrogen Japan K. K.) was used. The rat EP1-expressing vector was diluted with OPTI-MEM (registered trademark) I Reduced-Serum Medium (Invitrogen Japan K. K.) to 200 ng/25 μL/well, and at the same time, Lipofectamine 2000 (Invitrogen Japan K. K.) was also diluted with OPTI-MEM (registered trademark) I Reduced-Serum Medium (Invitrogen Japan K. K.) to 0.5 μL/25 μL/well, followed by incubation at room temperature for 5 minutes. […]
In the case of `COc1ccc2c(Cc3cccc(-c4noc(=S)[nH]4)n3)c(-c3ccccc3)[nH]c2c1` [Example 9, 3-[6-(6-Methoxy-2-phenyl-1H-indol-3-ylmethyl)pyridin-2-yl]-4,5-dihydro-1,2,4-oxadiazole-5-thione], the IC50 is reported as 50 nM. Molecule `CCS(=O)(=O)NC(=O)c1cccc(Cc2c(-c3ccc(F)cc3)[nH]c3cc(OC)ccc23)n1` [Example 3-15] has an IC50 of 27 nM. `CCCS(=O)(=O)NC(=O)c1cccc(Cc2c(C(C)(C)C)[nH]c3cc(OC)c(Cl)cc23)n1` [Example 3-5] showed an IC50 of 55 nM. `CCS(=O)(=O)NC(=O)c1cccc(Cc2c(-c3ccccc3)[nH]c3cc(C)ccc23)n1` [Example 3-34] showed an IC50 of 40 nM. For `COc1ccc2c(Cc3cccc(-c4nnn[nH]4)c3)c(-c3ccccc3)[nH]c2c1` [Example 5-6], the IC50 was 45 nM. In the case of `COc1ccc2c(Cc3cccc(C(=O)NS(=O)(=O)c4ccccc4F)n3)c(C(C)(C)C)[nH]c2c1` [Example 18-13], the IC50 is reported as 40 nM. In the case of `COc1ccc2c(Cc3cccc(-c4noc(=O)[nH]4)n3)c(-c3ccoc3)[nH]c2c1` [Example 12-1], the IC50 is reported as 23 nM. `Cc1ccc2c(Cc3cccc(C(=O)NS(=O)(=O)C(C)C)n3)c(-c3ccsc3)[nH]c2c1` [Example 18-10] was tested, and the IC50 was 26 nM. Work on `COc1cc2[nH]c(-c3ccccc3)c(Cc3cccc(C(=O)NC#N)n3)c2cc1F` [Example 16-3] yielded an IC50 of 24 nM. `CC1(c2[nH]c3cc(C4CC4)ccc3c2Cc2cccc(-c3nnn[nH]3)n2)CC1` [Example 17-13, 6-cyclopropyl-2-(1-methylcyclopropyl)-3-[6-(1H-tetrazol-5-yl)pyridin-2-ylmethyl]-1H-indole] gave an IC50 of 28 nM. With `CCS(=O)(=O)NC(=O)c1cccc(Cc2c(-c3ccccc3)[nH]c3cc(C)c(C)cc23)n1` [Example 3-31] the IC50 was 47 nM. Molecule `COc1cc2[nH]c(C3(C)CC3)c(Cc3cccc(-c4nnn[nH]4)n3)c2cc1C` [Example 20-4, 6-methoxy-5-methyl-2-(1-methylcyclopropyl)-3-[6-(1H-tetrazol-5-yl)pyridin-2-ylmethyl]-1H-indole] has an IC50 of 14 nM. In the case of `CCS(=O)(=O)NC(=O)c1cccc(Cc2c(-c3ccccc3)[nH]c3cc(C4CC4)ccc23)n1` [Example 3-33], the IC50 is reported as 66 nM. For `CCc1ccc2c(Cc3cccc(-c4nnn[nH]4)n3)c(C3(C)CC3)[nH]c2c1` [Example 20-2, 6-ethyl-2-(1-methylcyclopropyl)-3-[6-(1H-tetrazol-5-yl)pyridin-2-ylmethyl]-1H-indole], the IC50 was 15 nM. Work on `Cc1cc2[nH]c(-c3ccccc3)c(Cc3cccc(C(=O)NS(C)(=O)=O)n3)c2cc1C` [Example 3-30] yielded an IC50 of 43 nM. `CCS(=O)(=O)NC(=O)c1cccc(Cc2c(-c3ccoc3)[nH]c3cc(OC)ccc23)n1` [Example 3-23] was tested, and the IC50 was 58 nM. `COc1ccc2c(Cc3cccc(C(=O)NS(C)(=O)=O)n3)c(-c3ccsc3)[nH]c2c1` [Example 1, N-Methanesulfonyl-6-(6-methoxy-2-thiophen-3-yl-1H-indol-3-ylmethyl)pyridine-2-carboxamide] gave an IC50 of 99 nM. Work on `CCS(=O)(=O)NC(=O)c1cccc(Cc2c(-c3ccccc3)[nH]c3cc(OC)c(F)cc23)n1` [Example 3-32] yielded an IC50 of 51 nM. With `Cc1ccc2c(Cc3cccc(C(=O)NS(C)(=O)=O)n3)c(-c3ccsc3)[nH]c2c1` [Example 3-12] the IC50 was 27 nM. For `COc1ccc2c(Cc3cccc(-c4nnn[nH]4)n3)c(-c3ccc(F)cc3)[nH]c2c1` [Example 5-9], the IC50 was 22 nM. For `COc1ccc2c(Cc3cccc(C(=O)NS(C)(=O)=O)n3)c(-c3csc(C)c3)[nH]c2c1` [Example 3-20], the IC50 was 68 nM. With `Cc1cc2[nH]c(-c3ccccc3)c(Cc3cccc(-c4nnn[nH]4)n3)c2cc1C` [Example 17-3] the IC50 was 20 nM. Molecule `COc1cc2[nH]c(C(C)C)c(Cc3cccc(-c4nnn[nH]4)n3)c2cc1Cl` [Example 17-4] has an IC50 of 27 nM. Molecule `COc1cc2[nH]c(-c3ccccc3)c(Cc3cccc(-c4nnn[nH]4)n3)c2cc1F` [Example 5-8] has an IC50 of 12 nM. Work on `COc1ccc2c(Cc3cccc(C(=O)NS(C)(=O)=O)n3)c(-c3ccc(F)cc3)[nH]c2c1` [Example 3-14] yielded an IC50 of 88 nM. In the case of `CCS(=O)(=O)NC(=O)c1cccc(Cc2c(C(C)(C)C)[nH]c3cc(OC)c(Cl)cc23)n1` [Example 3-7], the IC50 is reported as 33 nM. Molecule `CCS(=O)(=O)NC(=O)c1cccc(Cc2c(-c3csc(C)c3)[nH]c3cc(OC)ccc23)n1` [Example 3-21] has an IC50 of 86 nM. In the case of `Cc1ccc2c(Cc3cccc(C(=O)NC#N)n3)c(-c3ccsc3)[nH]c2c1` [Example 16-6], the IC50 is reported as 36 nM. In the case of `COc1ccc2c(Cc3cccc(C(=O)NC#N)n3)c(C(C)(C)C)[nH]c2c1` [Example 16-2], the IC50 is reported as 48 nM. `CCS(=O)(=O)NC(=O)c1cccc(Cc2c(-c3ccsc3)[nH]c3cc(C)ccc23)n1` [Example 18-9] gave an IC50 of 23 nM. With `COc1ccc2c(Cc3cccc(-c4nnn[nH]4)n3)c(C3CC3)[nH]c2c1` [Example 17-6] the IC50 was 31 nM. In the case of `COc1cc2[nH]c(C(C)(C)C)c(Cc3cccc(C(=O)NC#N)n3)c2cc1Cl` [Example 16-5], the IC50 is reported as 46 nM. Molecule `CCCS(=O)(=O)NC(=O)c1cccc(Cc2c(-c3ccccc3)[nH]c3cc(OC)ccc23)n1` [Example 3-4] has an IC50 of 39 nM. With `COc1ccc2c(Cc3cccc(C(=O)NS(=O)(=O)c4ccccc4)n3)c(-c3ccccc3)[nH]c2c1` [Example 3-3] the IC50 was 30 nM. `CCC(C)c1[nH]c2cc(OC)ccc2c1Cc1cccc(-c2nnn[nH]2)n1` (centres unmarked) [Example 17-10] showed an IC50 of 22 nM.
